Measurements as given in ChEMBL document CHEMBL1134186, “Protein phosphatase 1 catalyses the direct hydrolytic cleavage of phosphate monoester in a ternary complex mechanism” (Bioorg Med Chem Lett, 2001).
Where a SMILES comes first, the peptide text is derived from it.

Columns and labels:
[1] = Compound was evaluated for the Ki value for peptide alcohol for competitive inhibition in the presence of Mn2+ ions at pH 7.5; type: ADME
protein phosphatase = experiment: Compound was evaluated for the Michaelis-Menten constant, Km in a generic protein phosphatase stopped assay system; type: ADME

Compound | Ki [1] | Km (protein phosphatase)
CC(=O)N[C@@H](CCCN=C(N)N)C(=O)N[C@@H](CCCN=C(N)N)C(=O)N[C@@H](C)C(=O)N[C@H](C(=O)N[C@H](C(=O)N[C@@H](C)C(=O)O)C(C)C)[C@@H](C)OP(=O)(O)O (HELM PEPTIDE1{[ac].R.R.A.[C[C@@H](OP(=O)(O)O)[C@H](N[*:1])C(=O)[*:2]].V.A}$$$$V2.0) | 1600 µM | 3.7 mM
H-RRATVA-OH | > 30000 µM | 
